The source of these data is patent US8202893B2, “Cannabinergic lipid ligands” (University of Connecticut, priority 2004, dated 2012).

One assay concerns the target T1, CB1 cannabinoid receptor (Rattus norvegicus, UniProt P20272).
T1 construct: membranes were prepared from rat forebrain membranes; from tissue; host or cells: rat forebrain
Put plainly: CB1 receptor binding, [3H]CP-55,940 displacement. The following applies: rat forebrain membranes, read-out: Ki CB1 (nM) (o/w PMSF). Here is the method:
Some inventive analogs were tested for CB2 receptor binding affinity and for CB1 receptor affinity (to determine selectivity). […] The lower the Ki value, the higher the binding affinity. […] For the CB1 receptor binding studies, membranes were prepared from rat forebrain membranes according to the procedure of P. R. Dodd et al, A Rapid Method for Preparing Synaptosomes: Comparison with Alternative Procedures, Brain Res., 107-118 (1981). The binding of the novel analogues to the CB1 cannabinoid receptor was assessed as described in W. A. Devane et al, Determination and Characterization of a Cannabinoid Receptor in a Rat Brain, Mol. Pharmacol., 34, 605-613 (1988) and A. Charalambous et al, 5′-azido Δ^8-THC: A Novel Photoaffinity Label for the Cannabinoid Receptor, J. Med. Chem., 35, 3076-3079 (1992) with the following changes. The above articles are incorporated by reference herein.
Membranes, previously frozen at −80° C., were thawed on ice. To the stirred suspension was added three volumes of TME (25 mM Tris-HCl buffer, 5 mM MgCl2 and 1 mM EDTA) at a pH 7.4. The suspension was incubated at 4° C. for 30 min. At the end of the incubation, the membranes were pelleted and washed three times with TME.
(§1) The treated membranes were subsequently used in the binding assay described below. Approximately 30 μg of membranes were incubated in silanized 96-well microtiter plate with TME containing 0.1% essentially fatty acid-free bovine serum albumin (BSA), 0.8 nM [^3H] CP-55,940, and various concentrations of test materials in a final volume of 200 μL. The assays were incubated for 1 hour at 30° C. and then immediately filtered using Packard Filtermate 196 harvester and Whatman GF/C filterplates and washed with wash buffer (TME) containing 0.5% BSA. Radioactivity was detected using MicroScint 20 scintillation cocktail added directly to the dried filterplates, and the filterplates were counted using a Packard Instruments Top-Count. Nonspecific binding was assessed using 100 nM CP-55,940. Data collected from three independent experiments performed with duplicate determinations was normalized between 100% and 0% specific binding for [^3H] CP-55,940, determined using buffer and 100 nM CP-55,940. The normalized data was analyzed using a 4-parameter nonlinear logistic equation to yield IC50 values.

In another assay the test system is anandamide transporter. Put plainly: [3H]Anandamide transporter competition assay. The following applies: human CCF-STG1 astrocytoma cells, 10 nM [3H]anandamide; read-out: IC50 (AT inhib.). The assay is classed as cell-based. The procedure:
Human CCF-STG1 astrocytoma cells (American Type Culture collection) were grown in RPMI1640 culture medium containing 2 mM L-glutamine, 4.5 g/L glucose, 10 mM HEPES, and 1.0 mM sodium pyruvate, 10% FBS, cultures at 37° C. with 5% CO2. For standard competition assays, confluent cells grown in 24-well plates were rinsed and preincubated for 10 min at 37° C. in assay buffer (Hank's Balanced Salt Solution containing 0.1% DMSO, 10 mM HEPES) plus test compounds (at their final concentrations of 0.01-100 μM). After having discarded the preincubation media, the cells were incubated for 4 min in 0.2 ml assay buffer containing 10 nM [^3H] anandamide (137.6 Ci/mmol, New England Nuclear) plus test compounds. Reactions were stopped by removing the incubation media and rinsing the cells three times with 0.5 ml of ice-cold HBSS buffer containing 0.1% fatty acid-free Bovine Serum Albumin (sigma). Radioactive material in Triton X-100 cell extracts was measured by liquid scintillation counting. A minimum of three independent experiments conducted in six replicates was used to define the concentration needed to produce half-maximal inhibition (IC50) for each compound. IC50 values were obtained by nonlinear regression fitting of the data, using the PRIZM software package. Data are expressed as mean±SEM.

A further assay has as its target T2, Mag-lipase (Rattus norvegicus, UniProt Q8R431).
T2 construct: supernatant from final spin in the anandamide amidase preparation; from tissue; host or cells: supernatant (soluble fraction) of the anandamide amidase preparation, rat brain by the cited procedure
T2 sequence (Q8R431 1-303): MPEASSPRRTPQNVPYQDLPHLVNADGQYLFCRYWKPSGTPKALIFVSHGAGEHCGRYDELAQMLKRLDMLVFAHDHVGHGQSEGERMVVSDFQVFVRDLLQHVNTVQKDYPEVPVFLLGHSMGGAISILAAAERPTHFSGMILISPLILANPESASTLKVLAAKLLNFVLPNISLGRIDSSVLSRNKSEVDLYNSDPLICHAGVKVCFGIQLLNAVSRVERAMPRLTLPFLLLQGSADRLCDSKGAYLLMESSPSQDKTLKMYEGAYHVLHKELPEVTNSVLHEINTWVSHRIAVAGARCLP
Put plainly: Inhibition of MAG-lipase: 2-AG metabolism to arachidonic acid. The following applies: 20 min, 30 nmoles compound with 30 nmoles 2-AG, 30 μg enzyme, 300 μL. Type of assay: biochemical. Here is the method:
All compound solutions were made to a concentration of 10 mM in DMSO. Three tests were performed on each compound: hydrolysis, to determine the stability of the compound in assay conditions without the enzyme present; metabolism, to determine the stability of the compound with the enzyme present; and inhibition of 2-Arachidonoyl glycerol (native substrate) metabolism to arachidonic acid.
The inhibition of 2-AG metabolism was measured by mixing 30 nmoles of the compound with 30 nmoles 2-AG, and 30 μg enzyme preparation in TME buffer (final volume of 300 μL). Again the reaction mixture was treated in the same manner as described above and the concentrations of 2-AG and AA were calculated using external standards. Percent inhibition was calculated using the following equation: % Inhib.=(AA20-AA0)i/(AA20-AA0)s where (AA20-AA0)i is the amount of arachidonic acid formed over 20 minutes from 2-AG with the inhibitor present and (AA20-AA0)s is the amount of arachidonic acid formed over 20 minutes from 2-AG when the inhibitor is not present. […] The reaction mixtures were treated as described above and the amount of AA formed was calculated. The software package GraphPad Prism was utilized to calculate IC50 and Ki. HPLC Conditions:
Chromatographic separation was achieved using an Ultrasphere ODS Pre-column (4.6×45 mm) from Beckman. Hardware consisted of a Waters Millennium HPLC system with a 20 μL injection loop. The mobile phase consisted of 8.5% o-phosphoric acid:acetonitrile (3:7), run isocratically at a rate of 1 mL/min and detection at 204 nm. The total run time was 8 minutes with 2-AG eluting at 3.0 minutes and AA at 6.0 minutes.

The target in a further assay is T3, CB2 receptor (Mus musculus, UniProt P47936).
T3 construct: membranes were prepared from frozen mouse spleen; from tissue; host or cells: mouse spleen
T3 sequence (P47936 whole entry): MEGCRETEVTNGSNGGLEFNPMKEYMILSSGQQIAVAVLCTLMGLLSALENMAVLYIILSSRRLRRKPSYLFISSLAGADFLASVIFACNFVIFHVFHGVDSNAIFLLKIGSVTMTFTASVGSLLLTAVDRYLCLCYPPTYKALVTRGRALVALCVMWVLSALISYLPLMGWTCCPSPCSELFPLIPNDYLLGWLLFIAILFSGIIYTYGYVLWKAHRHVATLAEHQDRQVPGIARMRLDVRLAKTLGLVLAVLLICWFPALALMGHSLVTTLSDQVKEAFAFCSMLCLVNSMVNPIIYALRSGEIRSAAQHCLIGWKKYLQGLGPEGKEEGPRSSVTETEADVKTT
In words: CB2 receptor binding, [3H]CP-55,940 displacement. The following applies: mouse spleen membranes. Here is the method:
as §1
For the CB2 receptor binding studies, membranes were prepared from frozen mouse spleen essentially according to the procedure of P. R. Dodd et al, A Rapid Method for Preparing Synaptosomes: Comparison with Alternative Procedures, Brain Res., 226, 107-118 (1981) which is incorporated by reference herein. Silanized centrifuge tubes were used throughout to minimize receptor loss due to adsorption. The CB2 binding assay was conducted in the same manner as for the CB1 binding assay. The binding affinities (Ki) were also expressed in nanomoles (nM).

The mark [1] stands for this setting: with PMSF (second value of cell).
Where [2] appears, read: without PMSF (first value of cell).

Read-outs that look alike come from different tables or passages of the source.

T1 sequence (P20272 whole entry): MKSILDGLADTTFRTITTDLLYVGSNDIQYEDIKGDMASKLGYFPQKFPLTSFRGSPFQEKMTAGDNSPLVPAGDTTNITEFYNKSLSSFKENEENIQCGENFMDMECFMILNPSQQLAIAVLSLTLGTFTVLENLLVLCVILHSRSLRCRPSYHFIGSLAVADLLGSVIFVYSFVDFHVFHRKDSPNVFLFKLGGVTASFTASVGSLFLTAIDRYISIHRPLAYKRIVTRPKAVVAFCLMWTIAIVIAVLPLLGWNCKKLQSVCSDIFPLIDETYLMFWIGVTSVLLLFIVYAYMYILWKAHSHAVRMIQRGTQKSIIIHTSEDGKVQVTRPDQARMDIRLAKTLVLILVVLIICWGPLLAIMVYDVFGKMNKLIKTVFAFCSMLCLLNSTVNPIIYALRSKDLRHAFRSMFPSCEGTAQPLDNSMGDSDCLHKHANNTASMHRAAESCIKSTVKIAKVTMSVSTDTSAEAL

In general, IC50 refers to the concentration that gives 50% inhibition. By inhibition is commonly meant the relative decrease from the control value, in per cent. A high value points to a response far below the control. Consider `CCCCC/C=C\C/C=C\C/C=C\C/C=C\CCCCOC(=O)Nc1cccnc1` [Compound B11], for which the Ki at CB1 cannabinoid receptor (setting [1]) came to 96.4 nM; at CB1 cannabinoid receptor (setting [2]) it was 302 nM; on CB2 receptor, 185 nM. Besides, the IC50 with anandamide transporter was 16100 nM. On Mag-lipase, this compound came in with an inhibition at 100 µM of 16.8%.
Turning to `CCCCCCCCC=CCCCCCCCCOC(=O)NCC(C)O` (stereo not shown) [Compound B13], the Ki on CB1 cannabinoid receptor (setting [1]) is 2240 nM; on CB1 cannabinoid receptor (setting [2]), 4750 nM; at CB2 receptor, 2600 nM. Also, the IC50 with anandamide transporter turned out to be 5920 nM. The “Mag-Lipase % Inhibition” value at Mag-lipase is on record as 13.1%.
